Assay results taken from PubChem BioAssay (NCI).
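Step 1: Grow cells in 96-well plates. Step 2: Expose to compound for 48 hours at 5 concentrations. Step 3: Interpolate endpoints linearly; if unreached, use highest concentration. GI50 = concentration required for 50% inhibition of growth. TGI: total growth inhibition.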

Columns and labels:
Assay in all cases: NCI-60 cell line screen, 48 h
[1] = system: 786-0 renal
[2] = system: UACC-257 melanoma
[3] = system: CAKI-1 renal
[4] = system: A498 renal
[5] = system: MALME-3M melanoma
[6] = system: OVCAR-8 ovarian
[7] = system: NCI-H522 lung
[8] = system: A549 NSCLC
[9] = system: PC-3 prostate
[10] = system: MOLT-4 leukemia

Row | SMILES | GI50 [1] [µM] | TGI [1] [µM] | GI50 [2] [µM] | TGI [2] [µM] | GI50 [3] [µM] | TGI [3] [µM] | GI50 [4] [µM] | TGI [4] [µM] | GI50 [5] [µM] | TGI [5] [µM] | GI50 [6] [µM] | TGI [6] [µM] | GI50 [7] [µM] | TGI [7] [µM] | GI50 [8] [µM] | TGI [8] [µM] | GI50 [9] [µM] | TGI [9] [µM] | GI50 [10] [µM] | TGI [10] [µM]
1 | CCCCCCCCOC(=O)c1c(C)[nH]c(/C=C2\N=C(c3ccc[nH]3)C=C2OC)c1C | 0.0407 | 1.32 | 0.188 | 7.45 | < 0.0214 | 4.83 | 0.19 | 2 | 0.641 | 2.67 | 0.0459 | 13.8 | 0.0316 | 4.02 | 0.118 | 13.3 | 0.0467 | > 34.8 | < 0.0201 | 18.5
2 | O=C(/C=C/c1ccc(O)c(O)c1)NCc1c[nH]c2ccccc12 | 39.7 | > 100 | > 100 | > 100 | 27.9 | > 100 | 32.4 | > 100 | 29.2 | > 100 | 56.6 | > 100 | 44.9 | > 100 | > 100 | > 100 | 71.3 | > 100 | 25.8 | > 100
3 | O=[N+]([O-])c1cccc(-c2nc(-c3ccccc3)c(-c3ccccc3)[nH]2)c1 |  | > 100 |  | > 100 |  | > 100 |  | > 100 |  | > 100 |  | > 100 |  | > 100 |  | > 100 |  | > 100 |  | > 100
4 | CN(C)CCNC(=O)c1ccc(-c2nc3ccc4[nH]ncc4c3c3c2C2CCC3C2)cc1 (stereo not given) | 0.882 | 4.92 | 3.07 | 9.95 | 0.93 | 5.25 | 0.22 | 1.22 | 1.67 | 3.96 | 1.4 | 9.81 | 1.25 | 4.33 | 1.65 | 12.8 | 1.24 | 7.22 | 1.1 | 5.56
5 | CCCCCN(CCCCC)CC(O)c1cc(Cl)ccc1OC (stereo not given) | 13 | 27.4 | 4.98 | 18.7 | 2.81 | 16.6 | 11.6 | 29.3 | 6.29 | 21.3 | 11.4 | 25.7 | 1.98 | 15.2 | 6.61 | 24.7 | 11.3 | 26.8 | 6.94 | 28.7
6 | O=S1(=O)N(Cc2ccccc2)[C@@H](Cc2ccccc2)[C@H](O)[C@H](O)[C@H](Cc2ccccc2)N1Cc1ccccc1 | 3.24 | 6.86 | 2.89 | 5.93 | 3.65 | 7.33 | 2.45 | 5.18 | 2.75 | 6.37 | 4.2 | 11.2 | 0.847 | 4.79 | 2.99 | 7.62 | 3.48 | 10.4 | 2.86 | 10.2
7 | COc1cccc(CN(C)c2ccc(CO)c(Cl)c2)c1 | 13.9 | > 67.6 | 0.216 | 0.679 | 2.82 | > 59.3 | 0.0311 | 0.154 | 25.9 | > 89.7 | 20.7 | > 96.5 | 22 | > 74.3 | 4.09 | 40.1 | 30.6 | > 100 | 33.1 | > 100
8 | CCN1CCN(Cc2ccc(NC(=O)Nc3nc4ccc(Oc5ccnc(C(=O)NC)c5)cc4s3)cc2C(F)(F)F)CC1 | 1.03 | 2.36 | 1.86 | 3.51 | 1.94 | 4.15 | 1.83 | 3.54 | 1.2 | 2.67 | 2.11 | 4.49 | 1.68 | 3.59 | 1.99 | 3.71 | 1.87 | 3.58 | 2.13 | 5.02
9 | CN(C)c1ccc(/C=C2\N=C(c3ccccc3)N(c3cc(C(F)(F)F)ccc3Cl)C2=O)cc1 | > 100 | > 100 | > 100 | > 100 | > 100 | > 100 | > 100 | > 100 | > 100 | > 100 | > 100 | > 100 | > 100 | > 100 | > 100 | > 100 | > 100 | > 100 | > 100 | > 100
10 | C=C1C(=O)O[C@H]2[C@H]1CC/C(COC(=O)NCc1ccc(OC)cc1)=C\CC[C@@]1(C)O[C@@H]21 | 0.7 | 1.67 | 0.766 | 2.55 | 0.628 | 2.08 | 2.92 | 20 | 0.554 | 1.29 | 1.23 | 9.27 | 0.378 | 1.15 | 4.28 | 19.2 | 2.61 | 14.3 | 0.843 | 2.31
11 | NS(=O)(=O)c1ccc(N=Nc2c(O)[nH]c3ccc(C(=O)NCc4ccncc4)cc23)cc1 | > 25 | > 25 | > 25 | > 25 | > 25 | > 25 | > 25 | > 25 | > 25 | > 25 | > 25 | > 25 | > 25 | > 25 | > 25 | > 25 | > 25 | > 25 | > 25 | > 25
12 | O=[N+]([O-])c1nccn1CC(O)CN1CCCCC1 (stereo not given) |  | > 100 |  | > 100 |  | > 100 |  | > 100 |  | > 100 |  | > 100 |  | > 100 |  | > 100 |  | > 100 |  | > 100
13 | COc1cc2ncnc(-n3ncc4cc(NC(=O)Nc5ccc(Cl)c(Cl)c5)ccc43)c2cc1OC | 1.56 | 3.52 | 3.23 | 6.79 | 2.3 | 5.94 | 2.37 | 6.24 | 1.72 | 3.89 | 2.77 | 7.07 | 2.5 | 6 | 2.69 | 5.75 | 1.55 | 3.24 | 2.04 | 11.4
14 | CN1CCN(Cc2ccc(NC(=O)c3cncc(C#Cc4cnc(N)cc4C#N)c3)cc2C(F)(F)F)CC1 | 4.38 | 16 | 3.24 | 15.4 | 3.78 | 16.7 | 0.227 | 3.67 | 0.264 | 0.943 | 4.51 | 19 | 3.69 | 17.7 | 3.89 | 15.4 | 3.5 | 19 | 1.86 | 22.3
15 | O=C(/C=C/c1ccc(C(F)(F)F)cc1)Nc1ccc(C=C2c3ccccc3C(=O)c3ccccc32)cc1 | 13.6 | > 100 | 3.87 | > 100 | 3.39 | > 100 | 2.6 | 52.8 | 8.91 | > 100 | 15.4 | > 100 | 2.36 | 25.4 | 6.14 | > 100 | 1.84 | > 100 | 4.65 | 65.1
16 | Cc1cc(C)c2c(n1)sc1c(N)ncnc12 | > 25 | > 25 | > 25 | > 25 | 15.8 | > 25 | 4.9 | > 25 | > 25 | > 25 | > 25 | > 25 | > 25 | > 25 | > 25 | > 25 | > 25 | > 25 | > 25 | > 25
17 | COC(=O)C(CCC(=O)CCl)N1C(=O)c2ccccc2C1=O (stereo not given) |  | 15.2 |  | 22.2 |  | 26.7 |  | 36.6 |  | 11.9 |  | 19 |  | 4.06 |  | 35.3 |  | 26.5 |  | 6.94
18 | Cn1c(=O)c2[nH]c(SCCN3CCOCC3)nc2n(C)c1=S |  | > 100 |  | > 100 |  | > 100 |  | > 100 |  | > 100 |  | > 100 |  | > 100 |  | > 100 |  | > 100 |  | > 100
19 | COc1ccc2c(c1OC)-c1c(c3ccc([N+](=O)[O-])cc3c(=O)n1CCCBr)C2=O | 21.6 | 52.1 | > 100 | > 100 | 7.31 | > 100 | > 100 | > 100 | 79.9 | > 100 | > 100 | > 100 | 27.6 | > 100 | 42.4 | > 100 | 18.1 | > 100 | 18.9 | 52.7
